Patent publication US20260174829A1, “METHODS OF REDUCING TYPE 2 CYTOKINE-MEDIATED INFLAMMATION USING NEUROMEDIN PEPTIDES” (Rutgers, The State University of New Jersey, priority 2018, published 2026)

System: TH2 cells
Assay: Anti-CD3/anti-CD28 stimulated lymph node cells (day 7 post-Nb), IL-5/IL-13 ELISA
Type: cell-based, mouse
Conditions: LN cells day 7 post-Nb, anti-CD3 and anti-CD28, 48 hours, vs media control
Experimental: FIGS. 7A-7I. Nmb treatment is sufficient to suppress allergic airway inflammation. Mice challenged with papain were treated with PBS or Nmb (i.t.) and (A) Lung ILC2s, (B) IL-5+ and IL-13+ ILC2s, and (C) eosinophils were evaluated. […] Mesenteric lymph nodes (MLNs) were isolated on day 7 post-Nb and single cells suspensions were treated with anti-CD3 and anti-CD28 in the presence or absence of Nmb for 48 hours and (E), IL-5 and (F) IL-13 were quantified in cell-free supernatants by ELISA. (F-I), Modified versions of Nmb (see Table 2) were tested for their ability to alter IL-5 and IL-13 production from anti-CD3 and anti-CD28 MLN cells isolated on day 7 post-Nb. P values were determined by two-tailed Student's t-tests. Blue asterisks represent comparisons between media treated controls and native Nmb. Red asterisks represent comparisons between media treated controls and modified version of Nmb as described in Table 2. (*,p<0.05), (**,p<0.01), (***,p<0.001) or (F-I).
FIGS. 8A-8B. Mesenteric lymph nodes (MLNs) were isolated on day 7 post-Nb and single cells suspensions were treated with anti-CD3 and anti-CD28 in the presence or absence of native Nmb or modified versions of the peptide for 48 hours and (A), IL-5 and (B) IL-13 were quantified in cell-free supernatants by ELISA. P values were determined by two-tailed Student's t-tests. Blue asterisks represent comparisons between media treated controls and native Nmb. Red asterisks represent comparisons between media treated controls and modified version of Nmb as described in Table 2. (*,p<0.05), (**,p<0.01), (***,p<0.001).
At the time points evaluated post-Nb, the majority of the type 2 cytokines are ILC2-derived (14) and any effects Nmb is having on TH2 cell responses may be difficult to detect. To address this, lung-draining LNs were isolated on day 7 post-Nb and stimulated with anti-CD3 and -CD28 to activate T cells in both the presence of absence of recombinant Nmb. LN cells treated with anti-CD3 and -CD28 produced increased amounts of IL-5, and IL-13 (FIGS. 7D, 7E).
Thus, Nmb can be employed to reduce type 2 cytokine-mediated inflammation. Native Nmb is a 10-mer peptide (SEQ ID NO: 1) that operates via its ability to bind the Nmb receptor (15). This example describes the results of an alanine scan to systematically replace various residues of the Nmb with alanine (Table 2) and the resulting ability of the variant Nmb peptides to inhibit type 2 cytokine production by TH2 cells. Further, caps were added to the native form of Nmb (SEQ ID NO: 1) and its bioactivity monitored (FIG. 5A).

Substance: H2N-GNLWATGHFM-amide [Nmb]
- IL-5 production from activated TH2 cells: significantly reduced
- IL-13 production from activated TH2 cells: significantly reduced
- IL-5 production from activated TH2 cells (listed as Native Nmb): significantly reduce
- IL-5 production from activated TH2 cells (listed as native Nmb): sufficient to reduce
- IL-13 production from activated TH2 cells (listed as native Nmb): sufficient to reduce
